Results as given in the NIST ThermoML archive (doi:10.1016/j.jct.2011.01.017).

Settings: Liquid, DSC

CCCCC/C=C\C/C=C\CCCCCCCC(=O)OCC [ethyl linoleate]
Settings | vapor or sublimation pressure [kPa]
486.64 K | 1.33
501.94 K | 2.67
510.65 K | 4
515.7 K | 5.33
520.91 K | 6.67
527.47 K | 8
537.39 K | 9.33

CCCCCCCC/C=C\CCCCCCCC(=O)OCC [ethyl (Z)-9-octadeceneoate]
Settings | vapor or sublimation pressure [kPa]
486.64 K | 1.33
500.98 K | 2.67
508.03 K | 4
514.61 K | 5.33
523.69 K | 6.67
528.56 K | 8
536.83 K | 9.33

CCCCCCCCCCCCCC(=O)OCC [ethyl tetradecanoate]
Settings | vapor or sublimation pressure [kPa]
446.06 K | 1.33
460.03 K | 2.67
470.26 K | 4
476.75 K | 5.33
481.32 K | 6.67
487.01 K | 8
492.47 K | 9.33

CCCCCCCCCCCCCCCC(=O)OCC [ethyl hexadecanoate]
Settings | vapor or sublimation pressure [kPa]
464.49 K | 1.33
481.9 K | 2.67
495.23 K | 4
502.27 K | 5.33
508.1 K | 6.67
512.23 K | 8
515.13 K | 9.33

CCCCCCCCCCCCCCCCCC(=O)OCC [ethyl octadecanoate]
Settings | vapor or sublimation pressure [kPa]
490.97 K | 1.33
505.55 K | 2.67
512.98 K | 4
520.56 K | 5.33
524.45 K | 6.67
525.78 K | 8
533.97 K | 9.33

CCCCCCCCCCCC(=O)OCC [ethyl dodecanoate]
Settings | vapor or sublimation pressure [kPa]
420.05 K | 1.33
432.13 K | 2.67
443.41 K | 4
451.05 K | 5.33
456.47 K | 6.67
462.44 K | 8
464.35 K | 9.33
